Experimental data: patent US11111245B2, “Derivatives of N-cycloalkyl/heterocycloalkyl-4-(imidazo[1,2-a]pyridine)pyrimidin-2-amine as therapeutic agents” (Aucentra Therapeutics Pty Ltd, priority 2017, dated 2021)

Legend:
[1] = target: T1, CDKs and other kinases (Homo sapiens, UniProt P50613); test: Radiometric kinase assay (Eurofins Pharma Discovery or Reaction Biology Corporation Kinase Profiler); type: biochemical; conditions: CDK7H; for remaining activity at 10 µM: compound at 10 μM, read-out: residual activity (%) at 10 μM CDK7H; for Ki: read-out: CDK inhibition, Ki (μM) CDK7H
T1 construct: other: CDK7H; residual activity (%) at 10 μM CDK7H; compound at 10 μM
T1 sequence (P50613 whole entry): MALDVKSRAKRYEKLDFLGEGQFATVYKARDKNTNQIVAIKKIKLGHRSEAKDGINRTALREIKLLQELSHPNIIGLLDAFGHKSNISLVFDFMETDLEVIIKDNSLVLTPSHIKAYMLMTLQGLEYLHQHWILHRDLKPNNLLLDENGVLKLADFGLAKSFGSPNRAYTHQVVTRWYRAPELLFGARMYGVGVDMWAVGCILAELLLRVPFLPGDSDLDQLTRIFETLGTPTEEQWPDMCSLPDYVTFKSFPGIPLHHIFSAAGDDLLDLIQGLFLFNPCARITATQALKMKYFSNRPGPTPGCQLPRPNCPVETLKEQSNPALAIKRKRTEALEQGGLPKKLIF
Summary of the method: (§1)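 Other CDKs and further kinases were profiled externally by radiometric assay. In-house ADP Glo assays covered CDK4/D1 and CDK6/D3 (RB-CTF substrate, pH 7.5 Tris buffer with MgCl2, DTT, BSA) and CDK9/T1 (RBER-IRStide substrate), 40 min at 37° C.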

[2] = target: T2, CDKs and other kinases (Homo sapiens, UniProt P06493); test: as above; type: biochemical; conditions: CDK1B; for remaining activity at 10 µM: compound at 10 μM, read-out: residual activity (%) at 10 μM CDK1B; for Ki: read-out: CDK inhibition, Ki (μM) CDK1B
T2 construct: other: CDK1B; residual activity (%) at 10 μM CDK1B; compound at 10 μM
T2 sequence (P06493 whole entry): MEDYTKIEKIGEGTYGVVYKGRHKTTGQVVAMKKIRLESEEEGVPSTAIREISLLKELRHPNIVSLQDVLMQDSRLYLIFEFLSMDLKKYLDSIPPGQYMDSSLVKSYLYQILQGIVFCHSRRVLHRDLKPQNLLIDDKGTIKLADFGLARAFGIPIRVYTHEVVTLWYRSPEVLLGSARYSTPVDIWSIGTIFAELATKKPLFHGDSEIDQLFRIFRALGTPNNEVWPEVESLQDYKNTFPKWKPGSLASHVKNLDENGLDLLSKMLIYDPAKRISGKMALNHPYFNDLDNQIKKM
Summary of the method: as §1

[3] = target: T3, CDKs and other kinases (Homo sapiens, UniProt P24941); test: as above; type: biochemical; conditions: CDK2A; for remaining activity at 10 µM: compound at 10 μM, read-out: residual activity (%) at 10 μM CDK2A; for Ki: read-out: CDK inhibition, Ki (μM) CDK2A
T3 construct: other: CDK2A; residual activity (%) at 10 μM CDK2A; compound at 10 μM
Summary of the method: as §1

[4] = target: CDK4/D1 (Homo sapiens, UniProt P11802); test: ADP Glo Kinase assay CDK4/D1; type: biochemical; conditions: CDK4D1; for remaining activity at 10 µM: compound at 10 μM, read-out: residual activity (%) at 10 μM CDK4D1
Sequence of CDK4/D1 (P11802 whole entry): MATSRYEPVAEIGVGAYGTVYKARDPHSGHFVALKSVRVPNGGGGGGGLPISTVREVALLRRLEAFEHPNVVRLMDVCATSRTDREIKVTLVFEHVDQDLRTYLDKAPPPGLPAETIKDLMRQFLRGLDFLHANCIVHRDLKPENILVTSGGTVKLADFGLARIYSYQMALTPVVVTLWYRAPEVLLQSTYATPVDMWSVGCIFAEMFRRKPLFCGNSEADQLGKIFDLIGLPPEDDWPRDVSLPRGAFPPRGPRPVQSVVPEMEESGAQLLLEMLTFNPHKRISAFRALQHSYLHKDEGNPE
Sequence of CDK4/D1 (P24385 whole entry partner): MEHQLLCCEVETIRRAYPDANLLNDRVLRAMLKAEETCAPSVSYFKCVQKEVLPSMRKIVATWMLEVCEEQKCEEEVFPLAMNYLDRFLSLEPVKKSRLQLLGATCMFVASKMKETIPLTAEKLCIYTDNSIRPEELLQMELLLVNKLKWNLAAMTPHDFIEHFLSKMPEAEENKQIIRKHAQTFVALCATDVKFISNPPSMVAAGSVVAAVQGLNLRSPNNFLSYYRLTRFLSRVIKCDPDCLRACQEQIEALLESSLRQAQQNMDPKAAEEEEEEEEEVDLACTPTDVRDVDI
Summary of the method: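 Luminescent ADP detection measured activity after a 40 min, 37° C ATP-initiated reaction, using RB-CTF for CDK4/D1 and CDK6/D3 and RBER-IRStide for CDK9/T1. Controls lacked or contained kinase. Values: IC50 by four-parameter nonlinear regression, Ki from ATP Km.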

[5] = system: leukemia cell lines; test: Resazurin cell viability assay on leukemia cell lines (72 h growth inhibition, GI50); type: cell-based; conditions: Homo sapiens, MV4-11 cells
Summary of the method: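 Viability is measured by MTT in solid tumour cells and by resazurin in leukaemia cells. Reported values are GI50s calculated with non-linear regression analysis.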

[6] = target: CDK9/T1 (Homo sapiens, UniProt P50750); test: ADP Glo Kinase assay CDK9/T1; type: biochemical; conditions: CDK9T1; read-out: CDK inhibition, Ki (μM) CDK9T1
Sequence of CDK9/T1 (P50750 whole entry): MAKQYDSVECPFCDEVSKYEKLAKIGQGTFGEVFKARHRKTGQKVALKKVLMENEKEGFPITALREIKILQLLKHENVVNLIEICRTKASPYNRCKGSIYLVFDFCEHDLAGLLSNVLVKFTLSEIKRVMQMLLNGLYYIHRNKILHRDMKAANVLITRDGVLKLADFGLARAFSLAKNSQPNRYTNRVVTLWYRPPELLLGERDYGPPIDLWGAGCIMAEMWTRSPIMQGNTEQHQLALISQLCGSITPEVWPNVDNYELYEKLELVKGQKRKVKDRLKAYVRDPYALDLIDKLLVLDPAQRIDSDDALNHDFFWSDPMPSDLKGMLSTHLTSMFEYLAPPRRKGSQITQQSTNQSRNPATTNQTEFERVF
Sequence of CDK9/T1 (O60563 whole entry partner): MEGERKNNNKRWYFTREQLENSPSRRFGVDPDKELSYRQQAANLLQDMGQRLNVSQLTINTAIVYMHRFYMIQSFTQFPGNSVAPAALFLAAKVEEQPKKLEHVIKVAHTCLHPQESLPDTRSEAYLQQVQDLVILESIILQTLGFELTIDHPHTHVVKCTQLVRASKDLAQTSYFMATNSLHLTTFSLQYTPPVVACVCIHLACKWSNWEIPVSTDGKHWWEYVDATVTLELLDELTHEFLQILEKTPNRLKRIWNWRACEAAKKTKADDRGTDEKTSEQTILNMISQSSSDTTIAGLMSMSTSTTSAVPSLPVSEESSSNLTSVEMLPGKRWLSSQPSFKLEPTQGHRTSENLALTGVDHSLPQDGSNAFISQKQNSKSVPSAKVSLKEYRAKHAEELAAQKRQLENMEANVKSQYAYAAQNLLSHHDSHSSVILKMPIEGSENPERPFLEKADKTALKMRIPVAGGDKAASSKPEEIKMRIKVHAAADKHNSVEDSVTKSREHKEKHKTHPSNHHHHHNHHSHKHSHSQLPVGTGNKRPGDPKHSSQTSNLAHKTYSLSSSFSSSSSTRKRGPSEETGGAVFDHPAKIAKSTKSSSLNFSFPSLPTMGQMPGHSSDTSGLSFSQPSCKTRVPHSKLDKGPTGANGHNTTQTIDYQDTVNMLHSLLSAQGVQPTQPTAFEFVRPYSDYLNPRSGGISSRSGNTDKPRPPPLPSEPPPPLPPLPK
Summary of the method: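 ADP Glo luminescence, in-house: CDK4/D1, CDK6/D3 on RB-CTF substrate (Tris pH 7.5, MgCl2, DTT, BSA); CDK9/T1 on RBER-IRStide. Reaction 40 min, 37° C after ATP addition. 10-point 1:3 series, 10 μM to 0.5 nM. IC50 by 4-parameter logistic; Ki derived using ATP Km.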

[7] = target: CDK6/D3 (Homo sapiens, UniProt Q00534); test: ADP Glo Kinase assay CDK6/D3; type: biochemical; conditions: CDK6D3; compound at 10 μM; read-out: residual activity (%) at 10 μM CDK6D3
Sequence of CDK6/D3 (Q00534 whole entry): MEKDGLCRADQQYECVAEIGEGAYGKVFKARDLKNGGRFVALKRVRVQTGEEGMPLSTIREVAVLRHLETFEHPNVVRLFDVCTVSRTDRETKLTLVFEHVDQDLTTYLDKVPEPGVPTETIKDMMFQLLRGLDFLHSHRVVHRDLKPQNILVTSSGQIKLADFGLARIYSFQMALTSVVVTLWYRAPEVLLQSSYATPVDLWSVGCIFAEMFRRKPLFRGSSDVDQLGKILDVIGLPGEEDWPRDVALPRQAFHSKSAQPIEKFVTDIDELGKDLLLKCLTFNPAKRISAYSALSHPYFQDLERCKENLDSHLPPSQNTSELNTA
Sequence of CDK6/D3 (P30281 whole entry partner): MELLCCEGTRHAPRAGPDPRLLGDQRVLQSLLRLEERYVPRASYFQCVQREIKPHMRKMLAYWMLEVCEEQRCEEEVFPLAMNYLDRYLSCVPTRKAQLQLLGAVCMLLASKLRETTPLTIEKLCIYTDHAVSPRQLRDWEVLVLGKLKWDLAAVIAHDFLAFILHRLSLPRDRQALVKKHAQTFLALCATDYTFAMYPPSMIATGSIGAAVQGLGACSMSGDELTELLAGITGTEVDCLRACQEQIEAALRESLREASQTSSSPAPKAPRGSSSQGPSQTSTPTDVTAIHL
Experimental: Eurofins Pharma Discovery or Reaction Biology Corporation Kinase Profiler services were used to measure inhibition of CDKs and other kinases by radiometric assay. Inhibition of CDK4/D1, CDK6/D3 and CDK9/T1 were also determined in-house using ADP Glo Kinase assays (Promega Corporation, Madison, USA). Briefly, the kinase reaction for CDK4/D1 and CDK6/D3 was performed with kinase reaction buffer ([…] Tris base pH 7.5, 20 mM MgCl2, 0.4 mM DTT), 0.1 mg/ml BSA and RB-CTF substrate (retinoblastoma protein 1 C-terminal fraction). For CDK9/CyclinT1, the kinase reaction was performed with standard assay buffer and Kinase Dilution Buffer and RBER-IRStide substrate. Serial dilutions of 1:3 were prepared for test compounds for 10 concentrations (from 10 μM to 0.5 nM). The kinase reactions were started by addition of ATP, incubated for 40 min at 37° C. and then stopped by adding 10 μL of ADP Glo reagent. After incubation at room temperature in the dark for 40 min, 20 μL of kinase detection reagent was added per well and incubated for 40 min. Luminescence was measured using an EnVision Multilabel plate reader (PerkinElmer, Buckinghamshire, UK). Positive and negative controls were performed in the presence and absence of CDK kinases, respectively. Half-maximal inhibition (IC50) values were calculated using a 4-parameter logistic non-linear regression model with Graphpad prism (Version 6.0). Apparent inhibition constants (Ki) values were calculated from Km (ATP) and IC50 values for the respective kinases.

COc1ccc(-c2ccc3ncc(-c4nc(N[C@H]5CC[C@H](N)CC5)ncc4C)n3c2)cn1 [Compound 58, (1r,4r)-N^1-(4-(6-(6-Methoxypyridin-3-yl)imidazo[1,2-a]pyridin-3-yl)-5-methylpyrimidin-2-yl)cyclohexane-1,4-diamine] showed a remaining activity at 10 µM [1] of 22%, a remaining activity at 10 µM [2] of 71% and a remaining activity at 10 µM [3] of 70%. It also gave a remaining activity at 10 µM [4] of 69%, a GI50 [5] of 0.177 ± 0.005 µM and a Ki [6] of 0.17 µM. For the same molecule, the remaining activity at 10 µM [7] was 86%.

COC(=O)CN1CCC(Nc2ncc(F)c(-c3cnc4ccccn34)n2)CC1 [Compound 23, Methyl 2-(4-((5-fluoro-4-(imidazo[1,2-a]pyridin-3-yl)pyrimidin-2-yl)amino)piperidin-1-yl)acetate] was tested, and the Ki [1] was 0.885 µM, the Ki [2] was 0.258 µM and the Ki [3] was 0.155 µM. The remaining activity at 10 µM [4] was 0%, the GI50 [5] was 0.28 ± 0.049 µM and the Ki [6] was 0.063 µM. It also gave a remaining activity at 10 µM [7] of 39%.

Work on Cc1cnc(N[C@H]2CC[C@H](N)CC2)nc1-c1cnc2ccc(-c3ccc(CN4CCOCC4)cc3)cn12 [Compound 60, (1r,4r)-N^1-(5-Methyl-4-(6-(4-(morpholinomethyl)phenyl)imidazo[1,2-a]pyridin-3-yl)pyrimidin-2-yl)cyclohexane-1,4-diamine] yielded a remaining activity at 10 µM [1] of 37%, a remaining activity at 10 µM [2] of 57% and a remaining activity at 10 µM [3] of 62%. The residual activity at 10 µM [4] was 115%, the GI50 [5] was 0.057 ± 0.006 µM and the Ki [6] was 0.41 µM. The remaining activity at 10 µM [7] was 89%.

Molecule N[C@H]1CC[C@H](Nc2ncc(F)c(-c3cnc4ccc(Nc5ccccc5)cn34)n2)CC1 [Compound 6, (1r,4r)-N^1-(5-Fluoro-4-(6-(phenylamino)imidazo[1,2-a]pyridin-3-yl)pyrimidin-2-yl)cyclohexane-1,4-diamine] has a Ki [1] of 0.016 µM, a Ki [2] of 0.013 µM and a Ki [3] of 0.009 µM. For the same molecule, the remaining activity at 10 µM [4] was 11%, the GI50 [5] was 0.002 ± 0.0005 µM and the Ki [6] was 0.003 µM. The remaining activity at 10 µM [7] was 16%.

In the case of COc1cccc(-c2ccc3ncc(-c4nc(N[C@H]5CC[C@H](N)CC5)ncc4C)n3c2)c1 [Compound 57, (1r,4r)-N^1-(4-(6-(3-Methoxyphenyl)imidazo[1,2-a]pyridin-3-yl)-5-methylpyrimidin-2-yl)cyclohexane-1,4-diamine], the remaining activity at 10 µM [1] is reported as 17%, the remaining activity at 10 µM [2] is reported as 47% and the remaining activity at 10 µM [3] is reported as 31%. It also gave a remaining activity at 10 µM [4] of 45%, a GI50 [5] of 0.067 ± 0.014 µM and a Ki [6] of 0.069 µM. For the same molecule, the remaining activity at 10 µM [7] was 39%.

For N[C@H]1CC[C@H](Nc2ncc(F)c(-c3cnc4ccc(-c5ccc(CN6CCOCC6)cc5)cn34)n2)CC1 [Compound 47, (1r,4r)-N^1-(5-Fluoro-4-(6-(4-(morpholinomethyl)phenyl)imidazo[1,2-a]pyridin-3-yl)pyrimidin-2-yl)cyclohexane-1,4-diamine], the Ki [1] was 0.075 µM, the remaining activity at 10 µM [2] was 5% and the remaining activity at 10 µM [3] was 2%. The remaining activity at 10 µM [4] was 4%, the GI50 [5] was 0.003 ± 0.001 µM and the Ki [6] was 0.004 µM. For the same molecule, the remaining activity at 10 µM [7] was 16%.

Cc1cnc(N[C@H]2CC[C@H](N)CC2)nc1-c1cnc2ccc(-c3ccoc3)cn12 [Compound 63, (1r,4r)-N^1-(4-(6-(Furan-3-yl)imidazo[1,2-a]pyridin-3-yl)-5-methylpyrimidin-2-yl)cyclohexane-1,4-diamine] showed a remaining activity at 10 µM [1] of 18%, a remaining activity at 10 µM [2] of 18% and a remaining activity at 10 µM [3] of 6%. For the same molecule, the remaining activity at 10 µM [4] was 38%, the GI50 [5] was 0.095 ± 0.031 µM and the Ki [6] was 0.054 µM. It also gave a remaining activity at 10 µM [7] of 29%.

For N[C@H]1CC[C@H](Nc2ncc(F)c(-c3cnc4ccc(C(F)(F)F)cn34)n2)CC1 [Compound 3, (1r,4r)-N^1-(5-Fluoro-4-(6-(trifluoromethyl)imidazo[1,2-a]pyridin-3-yl)pyrimidin-2-yl)cyclohexane-1,4-diamine], the Ki [1] was 0.019 µM, the Ki [2] was 0.084 µM and the Ki [3] was 0.023 µM. For the same molecule, the remaining activity at 10 µM [4] was 0%, the GI50 [5] was less than 0.001 µM and the Ki [6] was 0.006 µM. For the same molecule, the remaining activity at 10 µM [7] was 46%.

CC(=O)NC1CCC(Nc2ncc(C)c(-c3cnc4ccc(Nc5cncnc5)cn34)n2)CC1 (centres unmarked) [Compound 113, N-(4-((5-Methyl-4-(6-(pyrimidin-5-ylamino)imidazo [1,2-a]pyridin-3-yl)pyrimidin-2-yl)amino)cyclohexyl) acetamide] gave a Ki [1] of 2.59 µM, a Ki [2] of 0.82 µM and a Ki [3] of 0.45 µM. It also gave a remaining activity at 10 µM [4] of 28%, a GI50 [5] greater than 10 µM and a Ki [6] of 1.01 µM. It also gave a remaining activity at 10 µM [7] of 39%.

With Cc1cnc(N[C@H]2CC[C@H](N)CC2)nc1-c1cnc2ccc(-c3cncnc3)cn12 [Compound 39, (1r,4r)-N^1-(5-Methyl-4-(6-(pyrimidin-5-yl)imidazo[1,2-a]pyridin-3-yl)pyrimidin-2-yl)cyclohexane-1,4-diamine] the Ki [1] was 5.6 µM, the Ki [2] was 7.36 µM and the Ki [3] was 4.74 µM. The remaining activity at 10 µM [4] was 36%, the GI50 [5] was 0.082 ± 0.02 µM and the Ki [6] was 0.165 µM. It also gave a remaining activity at 10 µM [7] of 100%.

Cc1noc(C)c1-c1ccc2ncc(-c3nc(N[C@H]4CC[C@H](N)CC4)ncc3Cl)n2c1 [Compound 83, (1r,4r)-N^1-(5-Chloro-4-(6-(3,5-dimethylisoxazol-4-yl)imidazo[1,2-a]pyridin-3-yl)pyrimidin-2-yl)cyclohexane-1,4-diamine] gave a Ki [1] of 0.58 µM, a Ki [2] of 2.56 µM and a Ki [3] of 0.91 µM. The remaining activity at 10 µM [4] was 27%, the GI50 [5] was 0.052 ± 0.011 µM and the Ki [6] was 0.065 µM. It also gave a remaining activity at 10 µM [7] of 80%.

Cc1cnc(NC2CCOCC2)nc1-c1cnc2ccc(Nc3cccnc3)cn12 [Compound 103, 3-(5-Methyl-2-((tetrahydro-2H-pyran-4-yl)amino)pyrimidin-4-yl)-N-(pyridin-3-yl)imidazo[1,2-a]pyridin-6-amine] gave a remaining activity at 10 µM [1] of 40%, a remaining activity at 10 µM [2] of 4% and a remaining activity at 10 µM [3] of 1%. It also gave a remaining activity at 10 µM [4] of 30%, a GI50 [5] greater than 10 µM and a Ki [6] of 0.203 µM. The remaining activity at 10 µM [7] was 45%.

Molecule N[C@H]1CC[C@H](Nc2ncc(F)c(-c3cnc4ccc(F)cn34)n2)CC1 [Compound 2, (1r,4r)-N^1-(5-Fluoro-4-(6-fluoroimidazo[1,2-a]pyridin-3-yl)pyrimidin-2-yl)cyclohexane-1,4-diamine] has a Ki [1] of 0.034 µM, a Ki [2] of 0.085 µM and a Ki [3] of 0.012 µM. For the same molecule, the GI50 [5] was 0.006 ± 0.001 µM, the Ki [6] was 0.005 µM and the remaining activity at 10 µM [7] was 5%.

CS(=O)(=O)N[C@H]1CC[C@H](Nc2ncc(F)c(-c3cnc4ccccn34)n2)CC1 [Compound 16, N-((1r,4r)-4-((5-Fluoro-4-(imidazo[1,2-a]pyridin-3-yl)pyrimidin-2-yl)amino)cyclohexyl)methanesulfonamide] showed a remaining activity at 10 µM [1] of 50%, a Ki [3] of 0.001 µM and a GI50 [5] of 0.01 ± 0.001 µM. It also gave a Ki [6] of 0.029 µM and a remaining activity at 10 µM [7] of 32%.

Cc1ccc2ncc(-c3nc(N[C@H]4CC[C@H](N)CC4)ncc3F)n2c1 [Compound 4, (1r,4r)-N^1-(5-Fluoro-4-(6-methylimidazo[1,2-a]pyridin-3-yl)pyrimidin-2-yl)cyclohexane-1,4-diamine] was tested, and the remaining activity at 10 µM [2] was 1%, the remaining activity at 10 µM [3] was 2% and the remaining activity at 10 µM [4] was 0%. For the same molecule, the GI50 [5] was 0.004 ± 0.001 µM, the Ki [6] was 0.003 µM and the remaining activity at 10 µM [7] was 2%.
